Assay results: the supplement of paper PMC10307832

Assays:
Assay in all cases: relative viability (nuclei count vs DMSO), 5 days (fraction); higher = more cells survive
Sulindac + Olaparib = compound: CC1=C(CC(=O)O)c2cc(F)ccc2/C1=C\c1ccc([S+](C)[O-])cc1 [Sulindac] + O=C(c1cc(Cc2n[nH]c(=O)c3ccccc23)ccc1F)N1CCN(C(=O)C2CC2)CC1 [Olaparib] (partner 8 µM)
Procedure, shortened: (§1)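 Relative viability was taken as the ratio of nuclei in treated wells to nuclei in vehicle wells. Lung cancer cell lines in 1536-well plates received compounds by pin tool one day after seeding, either one drug alone or a fixed anchor-drug dose plus five library-drug doses (not always all listed) in √10 steps. Nuclei were counted on 4× images after 5 days of treatment, and values are medians of duplicate plates.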

[1] = compound: CN[C@@H]1C[C@H]2O[C@@](C)([C@@H]1OC)n1c3ccccc3c3c4c(c5c6ccccc6n2c5c31)C(=O)NC4 [Staurosporine] + Cc1nc(NC(=O)N2CCC[C@H]2C(N)=O)sc1-c1ccnc(C(C)(C)C(F)(F)F)c1 [Alpelisib] (partner 2 µM)
Procedure, shortened: as §1

[2] = compound: CN[C@@H]1C[C@H]2O[C@@](C)([C@@H]1OC)n1c3ccccc3c3c4c(c5c6ccccc6n2c5c31)C(=O)NC4 [Staurosporine] + Cc1nc(Nc2ncc(C(=O)Nc3c(C)cccc3Cl)s2)cc(N2CCN(CCO)CC2)n1 [Dasatinib] (partner 0.075 µM)
Procedure, shortened: as §1

Sulindac + Linsitinib = compound: CC1=C(CC(=O)O)c2cc(F)ccc2/C1=C\c1ccc([S+](C)[O-])cc1 [Sulindac] + C[C@]1(O)C[C@@H](c2nc(-c3ccc4ccc(-c5ccccc5)nc4c3)c3c(N)nccn32)C1 [Linsitinib] (partner 1 µM)
Procedure, shortened: as §1

Cell Line	relative viability (Sulindac + Olaparib; first compound 0.08 µM)	relative viability (Sulindac + Olaparib; first compound 0.253 µM)	relative viability (Sulindac + Olaparib; first compound 0.8 µM)	relative viability (Sulindac + Olaparib; first compound 2.53 µM)	relative viability (Sulindac + Olaparib; first compound 8 µM)	relative viability ([1]; first compound 0.005 µM)	relative viability ([1]; first compound 0.01581 µM)	relative viability ([1]; first compound 0.05 µM)	relative viability ([1]; first compound 0.1581 µM)	relative viability ([1]; first compound 0.5 µM)	relative viability ([2]; first compound 0.005 µM)	relative viability ([2]; first compound 0.05 µM)	relative viability ([2]; first compound 0.1581 µM)	relative viability ([2]; first compound 0.5 µM)	relative viability (Sulindac + Linsitinib; first compound 0.08 µM)	relative viability (Sulindac + Linsitinib; first compound 0.253 µM)	relative viability (Sulindac + Linsitinib; first compound 0.8 µM)	relative viability (Sulindac + Linsitinib; first compound 2.53 µM)	relative viability (Sulindac + Linsitinib; first compound 8 µM)	relative viability ([2]; first compound 0.01581 µM)
NCI-H2170	0.658	0.576	0.493	0.591	0.626	0.903	0.611	0.568	0.377	0.281	0.91	0.648	0.106	0.117						
HCC-366	0.338	0.356		0.399	0.508	0.363		0.0965	0.0438	0.0105	0.981	0.22	0.0316	0.022	0.567	0.759	0.183	0.787	1.03	
NCI-H2405	0.93	0.851	0.86	0.831	1.08	0.185	0.131	0.101	0.075	0.0622	0.111	0.114	0.0659	0.0751	1.01	0.934	0.852	0.918	1.13	0.11
COR-L 105	0.645	0.61	0.692	0.717	0.72	0.59	0.388	0.236	0.235	0.197	0.281	0.158	0.155	0.157	1.1	0.857	0.729	0.992	1.13	
201T	0.896	0.825	0.846	0.886	0.883	1.03	0.973	0.874	0.715	0.59	0.55	0.544	0.402	0.279	1.06	1.04	1.1	1.02	1.01	
NCI-H2228	0.941	0.804	0.499	0.637	0.516	0.658	0.204	0.155	0.148	0.0961	0.328	0.232	0.069	0.0624	0.704	0.659	0.765	0.701	1.2	0.245
LC-2-ad	0.746	0.677	0.676	0.686	0.66	0.178	0.338	0.237	0.0434	0.0442	0.488	0.193	0.194	0.141	0.938	0.795	0.816	0.881	0.933	0.188
NCI-H2087	0.606	0.722	0.54	0.468	0.571	0.875	0.624	0.449	0.118	0.125	0.701	0.311	0.0727	0.0691	1.01	1.13	0.938	0.964	1.17	0.431
NCI-H358	0.809	0.667	0.526	0.573	0.62	0.553	0.222	0.19	0.144	0.161	0.373	0.178	0.0752	0.0597	0.777	0.881	0.643	0.661	1.09	0.072
H3255	0.573	0.531	0.501	0.557	0.553	0.612	0.367	0.215	0.174	0.0798	0.271	0.255	0.19	0.248	0.923	1.03	0.745	1.02	1.1	0.247
NCI-H23	0.32	0.319	0.367	0.258	0.282	0.437	0.317	0.218	0.206	0.131	0.833	0.259	0.13	0.154	0.584	0.6	0.32	0.678	0.758	
CAL-12T	0.794	0.727	0.649	0.664	0.769	0.374	0.146	0.125	0.0823	0.0729	0.14	0.0772	0.107	0.0737	0.787	0.858	0.593	0.795	0.705	0.0881
A-427	0.74	0.787	0.8	0.742	0.821	1.03	0.889	0.374	0.25	0.143	0.5	0.183	0.0891	0.128	1.1	1.14	1.11	1.14	1.11	0.206
HARA	0.737	0.935	1	0.731	0.955	0.532	0.173	0.142	0.0954	0.0999	0.289	0.127	0.145	0.0757	1.23	1.09		1.06	0.851	
NCI-H1793	0.963	0.934		0.973	1.08	0.774	0.506	0.593	0.383	0.179	0.457	0.302	0.141	0.144	0.856	0.77	0.471	1.12	1.12	
NCI-H1623											0.635	0.651	0.553	0.41						0.425
NCI-H2023	0.486	0.511		0.441	0.554	0.56	0.28	0.274	0.15	0.0702	0.365	0.126	0.0785	0.0455	0.808	0.725	0.43	0.712	0.757	0.198
ABC-1	1.1	0.611	0.769	0.591	0.601	0.535	0.255	0.168	0.182	0.0986	0.341	0.167	0.109	0.139	1.22	0.806	0.627	0.629	0.741	0.193
IA-LM	0.932	0.925		0.953	0.881	0.577		0.281	0.211	0.0757					0.527	0.681		0.826	0.423	
NCI-H441	0.514	0.537	0.442	0.476	0.624	0.615	0.328	0.316	0.218	0.229	0.705	0.572	0.163	0.082	0.469	0.375	0.48	0.638	0.849	0.326

Cell Line	relative viability (Sulindac + Olaparib; first compound 0.08 µM)	relative viability (Sulindac + Olaparib; first compound 0.253 µM)	relative viability (Sulindac + Olaparib; first compound 0.8 µM)	relative viability (Sulindac + Olaparib; first compound 2.53 µM)	relative viability (Sulindac + Olaparib; first compound 8 µM)	relative viability ([1]; first compound 0.005 µM)	relative viability ([1]; first compound 0.01581 µM)	relative viability ([1]; first compound 0.05 µM)	relative viability ([1]; first compound 0.1581 µM)	relative viability ([1]; first compound 0.5 µM)	relative viability ([2]; first compound 0.005 µM)	relative viability ([2]; first compound 0.05 µM)	relative viability ([2]; first compound 0.1581 µM)	relative viability ([2]; first compound 0.5 µM)	relative viability (Sulindac + Linsitinib; first compound 0.08 µM)	relative viability (Sulindac + Linsitinib; first compound 0.253 µM)	relative viability (Sulindac + Linsitinib; first compound 0.8 µM)	relative viability (Sulindac + Linsitinib; first compound 2.53 µM)	relative viability (Sulindac + Linsitinib; first compound 8 µM)	relative viability ([2]; first compound 0.01581 µM)
NCI-H1915	0.241	0.266	0.245	0.254	0.264	1.11		0.587	0.445	0.357	0.212	0.204	0.0847	0.0869	1.13	1.14	1.09	1.11	1.07	0.0927
LXF-289	1.24	1.18	0.873	1.18	1.19	0.902		0.197	0.0563	0.0673	0.119	0.112	0.0474	0.0343	1.02	0.984	0.931	1.05	0.993	0.068
HCC-827	0.636	0.683	0.573	0.659	0.734	1.1	0.852	0.748		0.431	0.391	0.372	0.319	0.305	0.932	0.939	0.988	0.937	0.967	0.423
EMC-BAC-2	0.493	0.488	0.476	0.46	0.566	0.34	0.23	0.0952	0.131	0.108	0.213	0.198	0.167	0.152	0.894	0.882	0.726	0.809	0.835	0.197
NCI-H647	0.689	0.577	0.346	0.398	0.785	0.51	0.218	0.117	0.0645	0.0592	0.0983	0.0669	0.073	0.0532	1.14	1.3	1.4	1.25	1.21	0.0707
NCI-H1792	0.429	0.449		0.453	0.725	0.789	0.499	0.187	0.14	0.117	0.897	0.451	0.359	0.289	0.557	0.561		0.455	0.558	0.639
NCI-H522	0.694	0.735	0.558	0.633	0.61						1.08	0.743	0.497	0.527						
NCI-H1299	0.98	1.04	0.889	0.962	1.03	1.13	0.874	0.237	0.205	0.196					1.14	1.18	0.898	1.02	1.01	
NCI-H1563						0.813	0.57	0.63	0.53	0.489	0.43	0.411	0.247	0.433	1.13	1.15	1.03	1.15	1.31	0.434
NCI-H1650	0.827	0.723	0.705	0.742	0.757						0.24	0.166	0.127	0.119						0.225
Calu-6	0.618	0.624	0.449	0.531	0.711	0.732	0.612	0.279	0.104	0.0766					1.29	1.07	0.738	1.03	1.11	
EBC-1	0.846	0.643	0.545	0.748	0.816	0.367	0.307	0.151	0.157	0.145					0.937	1.16	0.509	1.04	0.989	
NCI-H1648	1.38	0.827		0.997	0.695															
NCI-H1703	0.39	0.526	0.404	0.529	0.554	0.219	0.167	0.142	0.139	0.102					0.673	0.873	0.561	0.761	1.15	
ChaGo-K-1	0.485	0.359	0.414	0.379	0.449						0.621	0.475	0.147	0.128						0.491
HCC-44	0.983	1.05	0.773	0.933	1.01	0.441	0.167	0.106	0.11	0.0846					0.769	0.729	0.707	0.702	0.786	
SW 900	0.968	0.965			1.06						0.473	0.21	0.191	0.158						0.185
NCI-H2342	0.353	0.368	0.414	0.415	0.451						0.297	0.26	0.234	0.27						0.243
A549	0.468	0.303		0.331	0.352	0.206	0.284	0.0899	0.0462	0.0282					0.532	0.535		0.572	0.641	
